# Values quoted from earlier work in patent US6365216B1, “Particles of N-[N-(3,3-dimethylbutyl)-L-α-aspartyl]-L-phenylalanine 1-methyl ester” (The NutraSweet Company, priority 1999, dated 2002).
# Conditions: times sweeter than sugar (sucrose)
smiles,measurement,value
"COC(=O)C(Cc1ccccc1)NC(=O)C(CC(=O)O)NCCC(C)(C)C [neotame, N-[N-(3,3-dimethylbutyl)-L-α-aspartyl]-L-phenylalanine 1-methyl ester]",sweetness potency,about 8000 X
